The values below come from patent US6352985B1, “Benzimidazole compounds” (Fujisawa Pharmaceutical Co., Ltd., priority 1995, dated 2002).

Regarding `Cc1nc2ccc(C(=O)NS(=O)(=O)c3ccc4ccccc4c3)cc2n1Cc1ccccc1Cl.[Na]`, the melting point is 352 to 354.5 °C. In the case of `Cc1nc2ccc(C(=O)NS(=O)(=O)c3ccc(Cl)cc3)cc2n1Cc1ccccc1Cl.[Na]`, the melting point was 360 to 362 °C (dec.). `Cc1nc2ccc(C(=O)NS(=O)(=O)C(F)(F)F)cc2n1Cc1ccccc1Cl.Cl`: the melting point is 332 to 335 °C (dec.). As to `CCCc1nc2ccc(C(=O)NS(=O)(=O)c3ccccc3)cc2n1Cc1ccc(-c2ccccc2)cc1.[K]`, the melting point lay in the range of 279 to 282 °C. `CC(C)c1nc2ccc(C(=O)NS(=O)(=O)c3ccccc3)cc2n1Cc1ccc(-c2ccccc2)cc1.[K]` displayed a melting point of 310.1 to 312.7 °C. The value for `Cc1nc2ccc(C(=O)NS(=O)(=O)c3cccc4cccnc34)cc2n1Cc1ccccc1Cl.[Na]` was 348 to 352 °C (dec.). The compound `Cc1nc2ccc(C(=O)NS(=O)(=O)c3ccc(C(C)(C)C)cc3)cc2n1Cc1ccccc1Cl.[Na]` returned a melting point of 359.5 to 362 °C. Under `O=C(NS(=O)(=O)c1ccccc1)c1ccc2nc(C3CC3)n(Cc3ccc(-c4ccccc4)cc3)c2c1.[K]` stands 220.8 to 224.8 °C. Take `Cc1nc2ccc(C=CC(=O)NS(=O)(=O)c3ccccc3)cc2n1Cc1ccccc1Cl` [Compound (178), N-benzenesulfonyl-3-[1-(2-chlorobenzyl)-2-methylbenzimidazol-6-yl]acrylamide]: the melting point was 243.1 to 244.3 °C. `Cc1nc2ccc(C(=O)NS(=O)(=O)c3cccc(Cl)c3)cc2n1Cc1ccccc1Cl` [Compound (209), 6-(3-chlorobenzenesulfonylcarbamoyl)-1-(2-chlorobenzyl)-2-methylbenzimidazole]: the melting point is 254.5 to 257.5 °C (dec.). As for `COc1ccc(S(=O)(=O)NC(=O)c2ccc3nc(C)n(Cc4ccccc4Cl)c3c2)cc1` [Compound (217), 1-(2-chlorobenzyl)-6-(4-methoxybenzenesulfonylcarbamoyl)-2-methylbenzimidazole], the melting point is 271 to 274 °C. For the compound `Cc1nc2ccc(C(=O)NS(=O)(=O)Cc3ccccc3)cc2n1Cc1ccccc1Cl` [Compound (218), 1-(2-chlorobenzyl)-2-methyl-6-(α-toluenesulfonylcarbamoyl)benzimidazole], the melting point lay within 193 to 196 °C. Consider `Cc1ccc(C)c(S(=O)(=O)NC(=O)c2ccc3nc(C)n(Cc4ccccc4Cl)c3c2)c1` [Compound (219), 1-(2-chlorobenzyl)-6-(2,5-dimethylbenzenesulfonylcarbamoyl)-2-methylbenzimidazole], for which the melting point was in the range of 266.5 to 267.5 °C. Compound `Cc1nc2ccc(C(=O)NS(=O)(=O)c3ccc([N+](=O)[O-])cc3)cc2n1Cc1ccccc1Cl` [Compound (220), 1-(2-chlorobenzyl)-2-methyl-6-(4-nitrobenzenesulfonylcarbamoyl)benzimidazole] yielded a melting point of 330 to 332 °C.

In the case of `Cc1nc2ccc(C(=O)NS(=O)(=O)c3ccc(C(F)(F)F)cc3)cc2n1Cc1ccccc1Cl` [Compound (221), 1-(2-chlorobenzyl)-2-methyl-6-[4-(trifluoromethyl)benzenesulfonylcarbamoyl]benzimidazole], the melting point was in the range of 288 to 292 °C. Under `Cc1nc2ccc(C(=O)NS(=O)(=O)c3ccccc3Cl)cc2n1Cc1ccccc1Cl.N` [Compound (222), 6-(2-chlorobenzenesulfonylcarbamoyl)-1-(2-chlorobenzyl)-2-methylbenzimidazole ammonium salt] stands 264 to 267 °C; under `CNc1nc2ccc(C(=O)NS(=O)(=O)c3ccccc3)cc2n1Cc1ccc(-c2ccccc2)cc1` [Compound (230), 6-benzenesulfonylcarbamoyl-1-(biphenyl-4-ylmethyl)-2-methylaminobenzimidazole], 225 to 228 °C. In turn, `Nc1nc2ccc(C(=O)NS(=O)(=O)c3ccccc3)cc2n1Cc1ccc(-c2ccccc2)cc1` [Compound (231), 2-amino-6-benzenesulfonylcarbamoyl-1-(biphenyl-4-ylmethyl)benzimidazole] yielded a melting point of 352.5 to 355 °C.
